Assay results: patent US20080044805A1, “Biopolymer-Dye Complex and Use as a Bioassay” (STC.UNM, priority 2006, published 2008)

Tests used:
[1] = Water solubility of the cyanine dye; assay type: physicochemical
Excerpt: For fluorescence of the polymers in solution, J-aggregate fluorescence became prominent for polymers having at least 33 cationic polymer repeat units. The fluorescence of the polymer is subject to very strong “super-quenching” by oppositely charged electron acceptors and energy-transfer quenchers that equals or exceeds that observed for conjugated polyelectrolytes by the same kind of quenchers. […] In exemplary embodiments, a cyanine dye of formula I, below, is used.

[2] = Hyaluronidase activity, scaffold destruction fluorescent assay; assay type: biochemical; conditions: hyaluronic acid substrate; estimated from maximal fluorescence of unreacted mix
Description: Hyaluronidase enzyme (11.3 U of E.C. 3.2.1.35) was mixed with 8 μg of hyaluronic acid in a total volume of 500 μL at 25° C. After 0, 20, 40, 60, 80, 100, 120 and 140 minutes, a portion of the reaction mixture was diluted into 20 μM concentrations of cyanine dye of Formula I dissolved in 20% methanol-80% water mixture dispensed into the wells of a 96 well microplate (Optiplate™-96, Perkin Elmer Life Sciences, Boston, Mass.) to a total volume of 275 μL. Sixty minutes after adding the reaction mixture to the cyanine solution, the fluorescence was measured using a Mithras LB 940 microplate spectrofluorometer (Berthold Instruments, Oak Ridge, Tenn.). The enzymatic reaction volume that was added to the cyanine dye solution represented approximately 364 ng of intact hyaluronic acid that might be present in the complete absence of enzymatic hydrolysis. This amount of hyaluronic was equivalent to the mid-point in the rise of the hyaluronic titration curve in FIG. 23. […] Hyaluronic acid in amounts of 0, 200, 400, 600, 800 and 1000 ng respectively were mixed with 1 U of hyaluronidase in a total volume of 100 μL. […] Based upon maximal fluorescence from reactions in which the enzyme and substrate were mixed but not allowed to react, it was estimated that hyaluronidase activity level reached a plateau between 60 to 80 minutes, representing 50% hydrolysis of the substrate.

water solubility [1] | hydrolysis of the substrate at plateau [2] | Compound
moderate | – | CCN1C(=Cc2sc3ccc(Cl)cc3[n+]2CC)Sc2ccc(Cl)cc21.[I-] [cyanine dye of Formula I]
– | 50% | hyaluronidase
